From paper PMC6211260 (Journal of Enzyme Inhibition and Medicinal Chemistry, 2018)

Experiments:
Assay type in all cases: cell-based
[1] = test system: non-small cell lung cancer cell lines; experiment: NCI five-dose testing, subpanel mean; settings: subpanel II: non-small cell lung cancer
Protocol: (§1) Screening against the cancer cell lines was carried out at the National Cancer Institute (NCI, Bethesda, Maryland, USA) applying the standard protocol of the NCI[22].

melanoma cell lines = experiment: NCI five-dose testing, subpanel mean; settings: subpanel V: melanoma
Protocol: as §1

CNS cancer cell lines = experiment: NCI five-dose testing, subpanel mean; settings: subpanel IV: CNS cancer
Protocol: as §1

breast cancer cell lines = experiment: NCI five-dose testing, subpanel mean; settings: subpanel IX: breast cancer
Protocol: as §1

colon cancer cell lines = experiment: NCI five-dose testing, subpanel mean; settings: subpanel III: colon cancer
Protocol: as §1

[2] = test system: prostate cancer cell lines; experiment: NCI five-dose testing, subpanel mean; settings: subpanel VIII: prostate cancer
Protocol: as §1

[3] = test system: ovarian cancer cell lines; experiment: NCI five-dose testing, subpanel mean; settings: subpanel VI: ovarian cancer
Protocol: as §1

renal cancer cell lines = experiment: NCI five-dose testing, subpanel mean; settings: subpanel VII: renal cancer
Protocol: as §1

Leukaemia cell lines = experiment: NCI five-dose testing, subpanel mean; settings: subpanel I: Leukaemia
Protocol: as §1

[4] = test system: PC-3 prostate cancer cell line; experiment: NCI five-dose testing; settings: Homo sapiens; for LC50 (lethal concentration 50): PC-3, read-out: LD50 (lethal dose 50); for IC50 / IC (TGI): PC-3; for IC50: read-out: IC50; for IC (TGI): read-out: TGI (total growth inhibition concentration)
Protocol: as §1

[5] = test system: K-562 leukaemia cell line; experiment: NCI five-dose testing; settings: Homo sapiens; for CC50: K562, read-out: LD50 (lethal dose 50); for IC50 / IC (TGI): K562, K-562; for IC (TGI): read-out: TGI (total growth inhibition concentration)
Protocol: as §1

[6] = test system: A498 renal cancer cell line; experiment: NCI five-dose testing; settings: Homo sapiens; for IC50 / IC (TGI): A498; for LC50 (lethal concentration 50%): A498, read-out: LD50 (lethal dose 50); for IC (TGI): read-out: TGI (total growth inhibition concentration)
Protocol: as §1

[7] = test system: MDA-MB-468 breast cancer cell line; experiment: NCI five-dose testing; settings: Homo sapiens; for IC50 / IC (TGI): MDA-MB-468; for CC50: MDA-MB-468, read-out: LD50 (lethal dose 50); for IC (TGI): read-out: TGI (total growth inhibition concentration)
Protocol: as §1

[8] = test system: HT-29 colon cancer cell line; experiment: NCI five-dose testing; settings: Homo sapiens; for CC50: HT-29, read-out: LD50 (lethal dose 50); for IC50 / IC (TGI): HT-29; for IC50: read-out: IC50; for IC (TGI): read-out: TGI (total growth inhibition concentration)
Protocol: as §1

[9] = test system: U251 CNS cancer cell line; experiment: NCI five-dose testing; settings: Homo sapiens; for CC50: U-251, read-out: LD50 (lethal dose 50); for IC50 / IC (TGI): U-251, U251; for IC50: read-out: IC50; for IC (TGI): read-out: TGI (total growth inhibition concentration)
Protocol: as §1

[10] = test system: OVCAR-4 ovarian cancer cell line; experiment: NCI five-dose testing; settings: Homo sapiens; for IC50 / IC (TGI): OVCAR-4; for LC50 (lethal concentration 50): OVCAR-4, read-out: LD50 (lethal dose 50); for IC (TGI): read-out: TGI (total growth inhibition concentration)
Protocol: as §1

[11] = test system: SK-MEL-5 melanoma cell line; experiment: NCI five-dose testing; settings: Homo sapiens; for IC50 / IC (TGI): SK-MEL-5; for LC50 (lethal concentration 50): SK-MEL-5, read-out: LD50 (lethal dose 50); for IC (TGI): read-out: TGI (total growth inhibition concentration)
Protocol: as §1

[12] = test system: HOP-92 non-small cell lung cancer cell line; experiment: NCI five-dose testing; settings: Homo sapiens; for IC50: HOP-92; for IC (TGI): HOP-92, HOP-92, read-out: TGI (total growth inhibition concentration); for LD50 (lethal dose 50): HOP-92, read-out: LD50 (lethal dose 50)
Protocol: as §1

Row | Structure (SMILES) | IC50 [1] | IC50 (melanoma cell lines) | IC50 (CNS cancer cell lines) | IC50 (breast cancer cell lines) | IC50 (colon cancer cell lines) | IC50 [2] | IC50 [3] | IC50 (renal cancer cell lines) | IC50 (Leukaemia cell lines) | LC50 (lethal concentration 50) [4] | IC50 [4] | IC (TGI) [4] | CC50 [5] | IC50 [5] | IC (TGI) [5] | IC50 [6] | LC50 (lethal concentration 50%) [6] | IC (TGI) [6] | IC50 [7] | CC50 [7] | further results
1 | O=S(=O)(NCCNc1cc(-c2cn(-c3ccccc3)nc2-c2cccc(O)c2)ccn1)c1ccc(C(F)(F)F)cc1 [Compound 1o, N-(2-((4-(3-(3-Hydroxyphenyl)-1-phenyl-1H-pyrazol-4-yl)pyridin-2-yl)amino)ethyl)-4-(trifluoromethyl)benzenesulfonamide] | 3.03 µM | 2.37 µM | 2.67 µM | 2.11 µM | 2.38 µM | 3.45 µM | 3.12 µM | 2.45 µM | 2.34 µM | 93.4 µM | 2.47 µM | 10.9 µM | > 100 µM | 2.48 µM | 6.5 µM | 1.71 µM | 41.4 µM | 14.5 µM | 2.05 µM | > 100 µM | IC (TGI) [7]: 5.02 µM; CC50 [8]: 35.1 µM; IC50 [8]: 2.04 µM; IC (TGI) [8]: 5.4 µM; CC50 [9]: 44.1 µM; IC50 [9]: 2.65 µM; IC (TGI) [9]: 7.2 µM; IC50 [10]: 2.85 µM; LC50 (lethal concentration 50) [10]: 81.2 µM; IC (TGI) [10]: 16.9 µM; IC50 [11]: 1.78 µM; LC50 (lethal concentration 50) [11]: 6.3 µM; IC (TGI) [11]: 3.3 µM; IC50 [12]: 1.97 µM; IC (TGI) [12]: 6.2 µM; LD50 (lethal dose 50) [12]: 52 µM
2 | O=S(=O)(NCCCNc1cc(-c2cn(-c3ccccc3)nc2-c2cccc(O)c2)ccn1)c1ccc(F)cc1 [Compound 2m, 4-Fluoro-N-(3-((4-(3-(3-hydroxyphenyl)-1-phenyl-1H-pyrazol-4-yl)pyridin-2-yl)amino)propyl)benzenesulfonamide] | 3.91 µM | 2.89 µM | 3.28 µM | 2.69 µM | 2.68 µM | 3.62 µM | 3.79 µM | 3.81 µM | 2.25 µM | 80.7 µM | 3.11 µM | 8.5 µM | > 100 µM | 2.4 µM | 6.3 µM | 3.52 µM | 52.3 µM | 9.8 µM | 2.55 µM | > 100 µM | IC (TGI) [7]: 6.7 µM; CC50 [8]: 47.8 µM; IC50 [8]: 2.26 µM; IC (TGI) [8]: 6.4 µM; CC50 [9]: 69.5 µM; IC50 [9]: 2.97 µM; IC (TGI) [9]: 10.3 µM; IC50 [10]: 3.82 µM; LC50 (lethal concentration 50) [10]: > 100 µM; IC (TGI) [10]: 4.8 µM; IC50 [11]: 3.06 µM; LC50 (lethal concentration 50) [11]: 33 µM; IC (TGI) [11]: 10.1 µM; IC50 [12]: 2.66 µM; IC (TGI) [12]: 7.6 µM; LD50 (lethal dose 50) [12]: 84.2 µM
